The nature of this data set: activity coefficient (dimensionless); of the first substance listed, at infinite dilution; xn = mol fraction of the nth substance listed. The note with it: 101 kPa, Liquid, Chromatography, x1 = 0.

Numbers after ± are expanded uncertainties.

For `C1CCCCCCC1` [cyclooctane] + COCC[N+]1(C)CCCC1.O=S(=O)([N-]S(=O)(=O)C(F)(F)F)C(F)(F)F, the activity coefficient runs as follows: (318.15 K) 20.7 ± 1.4; (328.15 K) 19 ± 1.3; (338.15 K) 17.4 ± 1.2; (348.15 K) 16.2 ± 1.1; (358.15 K) 15 ± 1; (368.15 K) 14 ± 1.
For `O` [water] + COCC[N+]1(C)CCCC1.O=S(=O)([N-]S(=O)(=O)C(F)(F)F)C(F)(F)F, the activity coefficient runs as follows: (318.15 K) 3.15 ± 0.21; (328.15 K) 2.81 ± 0.19; (338.15 K) 2.51 ± 0.17; (348.15 K) 2.26 ± 0.15; (358.15 K) 2.05 ± 0.14; (368.15 K) 1.85 ± 0.12.
For the compound `CCCCCC` [hexane] + COCC[N+]1(C)CCCC1.O=S(=O)([N-]S(=O)(=O)C(F)(F)F)C(F)(F)F, the activity coefficient was 19 ± 1.3 (318.15 K); 17.8 ± 1.2 (328.15 K); 16.7 ± 1.1 (338.15 K); 15.9 ± 1.1 (348.15 K); 15 ± 1 (358.15 K); 14.3 ± 1 (368.15 K).
For `C1CCOC1` [tetrahydrofuran] + COCC[N+]1(C)CCCC1.O=S(=O)([N-]S(=O)(=O)C(F)(F)F)C(F)(F)F, the activity coefficient runs as follows: (318.15 K) 0.81 ± 0.05; (328.15 K) 0.83 ± 0.05; (338.15 K) 0.84 ± 0.05; (348.15 K) 0.86 ± 0.06; (358.15 K) 0.87 ± 0.06; (368.15 K) 0.88 ± 0.06.
In the case of `CCOC(C)(C)C` [2-ethoxy-2-methylpropane] + COCC[N+]1(C)CCCC1.O=S(=O)([N-]S(=O)(=O)C(F)(F)F)C(F)(F)F, the activity coefficient is, setting by setting: (318.15 K) 6.31 ± 0.43; (328.15 K) 6.19 ± 0.42; (338.15 K) 6.12 ± 0.42; (348.15 K) 6.03 ± 0.41; (358.15 K) 5.94 ± 0.4; (368.15 K) 5.85 ± 0.4.
Take `COC(C)(C)C` [2-methoxy-2-methylpropane] + COCC[N+]1(C)CCCC1.O=S(=O)([N-]S(=O)(=O)C(F)(F)F)C(F)(F)F: the activity coefficient worked out at 2.76 ± 0.19 (318.15 K); 2.79 ± 0.19 (328.15 K); 2.81 ± 0.19 (338.15 K); 2.84 ± 0.19 (348.15 K); 2.86 ± 0.19 (358.15 K); 2.89 ± 0.2 (368.15 K).
In the case of `c1ccccc1` [benzene] + COCC[N+]1(C)CCCC1.O=S(=O)([N-]S(=O)(=O)C(F)(F)F)C(F)(F)F, the activity coefficient was 1.03 ± 0.06 (318.15 K); 1.04 ± 0.07 (328.15 K); 1.06 ± 0.07 (338.15 K); 1.07 ± 0.07 (348.15 K); 1.08 ± 0.07 (358.15 K); 1.09 ± 0.07 (368.15 K).
On to `Cc1ccccc1` [toluene] + COCC[N+]1(C)CCCC1.O=S(=O)([N-]S(=O)(=O)C(F)(F)F)C(F)(F)F, for which the activity coefficient turned out to be 1.48 ± 0.1 (318.15 K); 1.5 ± 0.1 (328.15 K); 1.51 ± 0.1 (338.15 K); 1.53 ± 0.1 (348.15 K); 1.55 ± 0.1 (358.15 K); 1.56 ± 0.1 (368.15 K).
`C#CCCCCC` [1-heptyne] + COCC[N+]1(C)CCCC1.O=S(=O)([N-]S(=O)(=O)C(F)(F)F)C(F)(F)F: the activity coefficient runs as follows: (318.15 K) 4.75 ± 0.32; (328.15 K) 4.71 ± 0.32; (338.15 K) 4.66 ± 0.32; (348.15 K) 4.62 ± 0.31; (358.15 K) 4.58 ± 0.31; (368.15 K) 4.55 ± 0.31.
In the case of `C=CCCC` [1-pentene] + COCC[N+]1(C)CCCC1.O=S(=O)([N-]S(=O)(=O)C(F)(F)F)C(F)(F)F, the activity coefficient reads like this: (318.15 K) 6.65 ± 0.45; (328.15 K) 6.5 ± 0.44; (338.15 K) 6.35 ± 0.43; (348.15 K) 6.17 ± 0.42; (358.15 K) 6.07 ± 0.41; (368.15 K) 5.91 ± 0.4.

The record behind these values is the NIST ThermoML archive (doi:10.1016/j.jct.2012.03.015).
